# Where two headings read alike, the source gives them in different places.
# Experiments:
# [1] = system: heart failure rat model; conditions: captopril alone, acute settings, heart failure rats in vivo
# [2] = system: heart failure rat model; type: in vivo
# Protocol: Male Lewis rats (Charles River, USA) at 2-3 months of age were used for the study. […] APJ agonists were administered dose dependently acutely for a period of 30 min.
# [3] = system: naive Sprague Dawley rat hearts
# [4] = molecular target: human APJ and the AT1R receptor (Homo sapiens (Human), UniProt P30556+P35414); assay: IP1 TR-FRET assay of AngII response with or without APJ agonists in double stable CHO-K1 APJ/AT1R cells; type: cell-based; conditions: in the presence of AngII; losartan added
# Protocol: Single and double stable recombinant cell lines were generated for human APJ and the AT1R receptor in CHO K1 cells tagged either with FLAG or hemagglutinin (HA) tag. Briefly, the CHO-K1 APJ/AT1R cells were seeded in culture medium of DMEM-F12 and 10% FBS at a density of 15 k/well in a 96 well plate overnight. The next day, the culture medium was replaced with medium containing no serum for 4 hours. The compound AngII at a range of concentrations (1 pM-10 μM) with or without different concentrations of APJ agonists were diluted in stimulation buffer and added to the cell plate. The plate was sealed and incubated for 1 hour. This was followed by addition of IP-d2 conjugate followed by europium cryptate antibody conjugate into the wells. The plate was sealed, followed with incubation for 2 hours at room temperature. Time-resolved fluorescence resonance energy (TR-FRET) at 620 nm and 665 nm was measured after 2 hours with an Envision reader. The signal ratios and delta F were calculated and the amount of IP1 produced was inversely proportional to the TR-FRET ratio, 665/620 nm.
# [5] = system: isolated perfused rat hearts; assay: Ex vivo isolated perfused rat heart (Langendorff) assay, load independent inotropic and lusitropic effects; conditions: ARB losartan together with APJ agonist
# [6] = molecular target: APJ (Homo sapiens (Human), UniProt P35414); conditions: 2003 study, Medhurst et al.; cited from earlier work
# [7] = molecular target: human AT1R receptor expressed in the CHO cell line (Homo sapiens (Human), UniProt P30556); conditions: different concentrations of AngII with fixed concentration of pyr apelin-13; human AT1R expressed alone in CHO cells
# Protocol: The function of the inositol phosphate accumulation (IP1) was measured by Time-resolved fluorescence resonance energy (TR-FRET) at 620 nm and 665 nm respectively.
# [8] = ex vivo naive Sprague Dawley rat hearts, Langendorff apparatus, as a function of concentration
# Chain of APJ (P35414 whole entry): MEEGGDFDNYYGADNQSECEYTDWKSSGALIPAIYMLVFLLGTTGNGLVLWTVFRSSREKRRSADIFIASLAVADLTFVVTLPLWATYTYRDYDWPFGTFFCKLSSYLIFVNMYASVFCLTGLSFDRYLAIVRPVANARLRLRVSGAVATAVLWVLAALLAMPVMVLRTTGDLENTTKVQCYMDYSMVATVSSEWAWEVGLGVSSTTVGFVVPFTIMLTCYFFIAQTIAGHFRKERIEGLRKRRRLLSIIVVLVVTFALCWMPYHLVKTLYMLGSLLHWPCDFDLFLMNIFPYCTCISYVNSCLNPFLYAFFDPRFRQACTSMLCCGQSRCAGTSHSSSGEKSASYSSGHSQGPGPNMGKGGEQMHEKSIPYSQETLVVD
# Chain of human APJ and the AT1R receptor (P35414 whole entry, looked up, the tested form may be a part): as the sequence (P35414 whole entry) above
# Chain of human APJ and the AT1R receptor (P30556 whole entry, looked up, the tested form may be a part): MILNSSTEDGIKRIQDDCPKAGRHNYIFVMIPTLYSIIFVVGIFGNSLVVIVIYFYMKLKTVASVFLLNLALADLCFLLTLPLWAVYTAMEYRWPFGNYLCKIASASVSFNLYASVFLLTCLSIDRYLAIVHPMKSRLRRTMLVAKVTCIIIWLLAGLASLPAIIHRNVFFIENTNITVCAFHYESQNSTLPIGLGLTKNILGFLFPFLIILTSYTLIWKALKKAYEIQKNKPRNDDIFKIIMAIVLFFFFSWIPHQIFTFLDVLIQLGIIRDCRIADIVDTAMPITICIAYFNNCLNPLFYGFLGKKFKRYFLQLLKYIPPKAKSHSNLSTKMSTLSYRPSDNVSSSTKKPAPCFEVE
# Chain of human AT1R receptor expressed in the CHO cell line (P30556 whole entry): as the sequence (P30556 whole entry, looked up, the tested form may be a part) above
compound,measurement,setting,value
"C[C@H](CS)C(=O)N1CCC[C@H]1C(=O)O [Captopril, captopril]",contractility or ejection fraction,[1],does not show a marked improvement
"COc1cccc(OC)c1-n1c(NS(=O)(=O)[C@@H](C)[C@H](C)c2ncc(C)cn2)nnc1-c1cccnc1 [Example 586.0, (2S,3R)-N-(4-(2,6-dimethoxyphenyl)-5-(3-pyridinyl)-4H-1,2,4-triazol-3-yl)-3-(5-methyl-2-pyrimidinyl)-2-butanesulfonamide]",cardiac contractility as measured by dP/dtmax (derivative of left ventricular pressure),"[2]; male Lewis rats, heart failure by permanent ligation of left descending coronary artery, ejection fraction <35%, dosed acutely for 30 min",increase in cardiac contractility
same,Isolated Heart Assay dP/dtmax(%),[3],15%
same,Isolated Heart Assay dP/dtmin(%),[3],21%
same,left ventricular dP/dtmax (load independent cardiac contractility),[3]; [8],increases load independent cardiac contractility
same,left ventricular dP/dtmin (load independent cardiac relaxation),[3]; [8],increases load independent cardiac relaxation
"COc1ncnc(OC)c1-n1c(NS(=O)(=O)[C@@H](C)[C@H](OC)c2ncc(C)cn2)nnc1-c1ccccn1 [Example 628.0, (1R,2S)-N-(4-(4,6-dimethoxy-5-pyrimidinyl)-5-(2-pyridinyl)-4H-1,2,4-triazol-3-yl)-1-methoxy-1-(5-methyl-2-pyrimidinyl)-2-propanesulfonamide]",MI Rat Model dP/dtmax(%),"[2]; rat, in vivo",15%
same,Isolated Heart Assay dP/dtmax(%),[3],18.3%
same,Isolated Heart Assay dP/dtmin(%),[3],18.0%
"COc1cccc(-c2nnc(NS(=O)(=O)[C@@H](C)[C@H](OC)c3ncc(C)cn3)n2-c2c(F)cccc2F)n1.O=C(O)C(F)(F)F [Example 684.0, (1R,2S)-N-(4-(2,6-difluorophenyl)-5-(6-methoxy-2-pyridinyl)-4H-1,2,4-triazol-3-yl)-1-methoxy-1-(5-methyl-2-pyrimidinyl)-2-propanesulfonamide]",MI Rat Model dP/dtmax(%),"[2]; in vivo heart failure (MI) rat, acute administration for 30 min",20%
same,Isolated Heart Assay dP/dtmax(%),"[3]; ex vivo isolated perfused rat heart, contractility, percent change over vehicle",19.0%
same,Isolated Heart Assay dP/dtmin(%),"[3]; ex vivo isolated perfused rat heart, relaxation (lusitropic), percent change over vehicle",18.3%
CCCCc1nc(Cl)c(CO)n1Cc1ccc(-c2ccccc2-c2nn[nH]n2)cc1 [losartan],effect on the positive cooperativity induced by APJ small molecule agonists,[4],relieved this cooperativity
same,"APJ receptor signaling on blocking AT1R, ex-vivo studies",[5],synergistic effects
same,"APJ receptor signaling on blocking AT1R, in vivo studies",[2]; ARB losartan together with APJ agonist,synergistic effects
apelin-17,"in vitro activity compared among apelin-36, apelin-17 and apelin-13",[6],approximately equipotent
apelin-36,"in vitro activity compared among apelin-36, apelin-17 and apelin-13",[6],approximately equipotent
pyr apelin-13,positive cooperativity (IP1 accumulation),[7],no positive cooperativity observed
